# Counter-ions that a name gives are not always drawn.
row,melting point,Structure (SMILES)
1,163.1 to 164.4 °C,CN1CCCN(c2cccc([N+](=O)[O-])c2)CC1
2,116.5 to 117 °C,CN1CCN(c2cnc3ccccc3c2)CC1
3,87.7 to 88.5 °C,c1ccc2ncc(N3CCNCC3)cc2c1
4,165 to 167 °C,Clc1ccc(N2CCCNCC2)cn1
5,136.4 to 138.2 °C,C=COc1cncc(N2CCN(C)CC2)c1 (as salt: fumaric acid salt)
6,149.5 to 151.8 °C,CCCCCCOc1cncc(N2CCCNCC2)c1 (as salt: fumaric acid salt)
7,154 to 156 °C,O=S(=O)(Oc1cncc(N2CCCNCC2)c1)C(F)(F)F (as salt: fumaric acid salt)
8,166 to 168 °C,CC1CCN(c2ccc(Cl)nn2)CCCN1 (stereo not shown) (as salt: fumaric acid salt)
9,163.3 to 164.5 °C,c1ncc(N2CCCNCC2)cc1OCC1CCCCC1 (as salt: fumaric acid salt)
10,172.5 to 174 °C,C#Cc1cncc(N2CCCNCC2)c1 (as salt: fumaric acid salt)
11,139.3 to 140.4 °C,CCOCCOc1cncc(N2CCCNCC2)c1 (as salt: fumaric acid salt)
12,163.1 to 164.4 °C,O=[N+]([O-])c1cccc(N2CCCNCC2)c1 (as salt: fumaric acid salt)
13,155.5 to 156.7 °C,CCCCCOc1cncc(N2CCCNCC2)c1 (as salt: fumaric acid salt)
14,165.4 to 167.7 °C,Nc1cccc(N2CCCNCC2)c1 (as salt: fumaric acid salt)
15,132.8 to 136.6 °C,CCCCCCCOc1cncc(N2CCCNCC2)c1 (as salt: fumaric acid salt)
16,164.1 to 165.7 °C,COc1cccc(N2CCCNCC2)c1 (as salt: fumaric acid salt)
17,165 °C (dec.),Oc1cccc(N2CCCNCC2)c1 (as salt: fumaric acid salt)
18,174 to 175 °C,c1ccn(-c2cncc(N3CCCNCC3)c2)c1 (as salt: fumaric acid salt)
19,171 to 172 °C,CN1CCCN(c2ccc(Cl)nn2)CC1 (as salt: fumaric acid salt)
20,185 to 186 °C,CN1CCCN(c2ccc(-c3ccccc3)nn2)CC1 (as salt: fumaric acid salt)
21,137.8 to 139.3 °C,CN1CCCN(c2cccnn2)CC1 (as salt: fumaric acid salt)
22,152 to 153 °C,Cc1ccc(N2CCCN(C)CC2)nn1 (as salt: fumaric acid salt)
23,148.4 to 149 °C,c1ccc(CN2CCCN(c3cccnc3)CC2)cc1 (as salt: fumaric acid salt)
24,145.3 to 147.5 °C,CCN1CCCN(c2cccnc2)CC1 (as salt: fumaric acid salt)

row,melting point,Structure (SMILES)
1,160 to 162 °C,c1cncc(-c2cncc(N3CCCNCC3)c2)c1 (as salt: fumaric acid salt)
2,193 to 195 °C,c1ccc2c(c1)ccn2-c1cncc(N2CCCNCC2)c1 (as salt: fumaric acid salt)
3,187 to 189 °C,c1ccc(-c2ccc(N3CCCNCC3)nn2)cc1 (as salt: fumaric acid salt)
4,127 to 128 °C,COc1ccc(N2CCCNCC2)cn1 (as salt: fumaric acid salt)
5,150 to 152 °C,COc1cc(N2CCCNCC2)cnc1OC (as salt: fumaric acid salt)
6,136.4 to 138.2 °C,C=COc1cncc(N2CCNCC2)c1 (as salt: fumaric acid salt)
7,117 to 118 °C,COc1cnc(Cl)c(N2CCCNCC2)c1 (as salt: fumaric acid salt)
8,150 to 151 °C,CCCCOc1cncc(N2CCCNCC2)c1 (as salt: fumaric acid salt)
9,143 to 144 °C,C=COc1cncc(N2CCCNCC2)c1 (as salt: fumaric acid salt)
10,149 to 151 °C,Cc1cnc(C)c(N2CCCNCC2)n1 (as salt: fumaric acid salt)
11,167.5 to 168.5 °C,c1ccc(-c2cncc(N3CCNCC3)c2)cc1 (as salt: fumaric acid salt)
12,162.5 to 164.5 °C,CCOc1cncc(N2CCCNCCC2)c1 (as salt: fumaric acid salt)
13,148 to 150 °C,c1ncc(N2CCCNCC2)cc1OC1CCCC1 (as salt: fumaric acid salt)
14,150 to 152 °C,CCCOc1cncc(N2CCCNCCC2)c1 (as salt: fumaric acid salt)
15,181.7 to 183.2 °C,CCOc1cc(N2CCCNCC2)cnc1Br (as salt: fumaric acid salt)
16,148.6 to 150.5 °C,c1cc(N2CCCC2)ncc1N1CCCNCC1 (as salt: fumaric acid salt)
17,144.4 to 146.6 °C,Clc1cncc(N2CCCNCC2)c1 (as salt: fumaric acid salt)
18,136.2 to 139.9 °C,Clc1nc2ccccc2nc1N1CCCNCC1 (as salt: fumaric acid salt)
19,136.9 to 139.2 °C,CCCCOc1cncc(N2CCN(C)CC2)c1 (as salt: fumaric acid salt)
20,142 to 144 °C,C=COc1cncc(N2CCCNCCC2)c1 (as salt: fumaric acid salt)
21,139.9 to 142 °C,CC(C)CCOc1cncc(N2CCCNCC2)c1 (as salt: fumaric acid salt)
22,180.7 to 185.4 °C,Brc1cncc(N2CCCNCC2)c1 (as salt: fumaric acid salt)
23,160 to 162 °C,c1ccc2c(N3CCCNCC3)cncc2c1 (as salt: fumaric acid salt)

row,Structure (SMILES),melting point
1,"CN1CCN(c2cccnc2)CC1 (as salt: fumaric acid salt) [Compound 1A, 4-Methyl-1-(3-pyridyl)-piperazine]",144.5 to 145.9 °C
2,"c1cncc(N2CCNCC2)c1 (as salt: fumaric acid salt) [Compound 1B, 1-(3-Pyridyl)-piperazine]",161.7 to 164.8 °C
3,"CCOc1cncc(N2CCNCC2)c1 (as salt: fumaric acid salt) [Compound 1D, 1-(5-Ethoxy-3-pyridyl)piperazine]",160 to 161.2 °C
4,"c1cncc(N2CCCNCC2)c1 (as salt: fumaric acid salt) [Compound 1F, 1-(3-Pyridyl)-homopiperazine]",172.1 to 172.9 °C
5,"COc1cncc(N2CCCNCC2)c1 (as salt: fumaric acid salt) [Compound 1H, 1-(5-Methoxy-3-pyridyl)-homopiperazine]",161 to 162 °C
6,"Clc1ccc(N2CCCNCC2)nn1 (as salt: fumaric acid salt) [Compound 1K, 1-(6-Chloro-3-pyridazinyl)-homopiperazine]",165 to 166 °C
7,"COc1cncc(N2CCN(C)C2)c1 (as salt: fumaric acid salt) [Compound 1M, 1-(5-Methoxy-3-pyridyl)-3-methyl-imidazolidine]",139 to 142 °C
8,"CCCCOc1cncc(N2CCNCC2)c1 (as salt: fumaric acid salt) [Compound 2D, 1-(5-Butoxy-3-pyridyl)piperazine]",149.4 to 151.7 °C
9,"CN1CCCN(c2cnc3ccccc3c2)CC1 (as salt: fumaric acid salt) [Compound 2E, 4-Methyl-1-(3-quinolinyl)-homopiperazine]",170 to 171 °C
10,"c1ccc2ncc(N3CCCNCC3)cc2c1 (as salt: fumaric acid salt) [Compound 2F, 1-(3-Quinolinyl)-homopiperazine]",181 to 182 °C
11,"c1ccc(-c2cncc(N3CCCNCC3)c2)cc1 (as salt: fumaric acid salt) [Compound 2H, 1-(5-Phenyl-3-pyridyl)-homopiperazine]",185 to 186 °C
12,"c1ccc2nc(N3CCCNCC3)cnc2c1 (as salt: fumaric acid salt) [Compound 2L, 1-(2-Quinoxalinyl)-homopiperazine]",177 to 180 °C
13,"COc1cncc(N2CCCN(C)C2)c1 (as salt: fumaric acid salt) [Compound 2M, 1-(5-Methoxy-3-pyridyl)-3-methyl-1,3-diazacyclohexane]",149 to 151 °C
14,"COc1cncc(N2CCNCC2)c1 (as salt: fumaric acid salt) [Compound 3B, 1-(5-Methoxy-3-pyridyl)-piperazine]",168.5 to 170.5 °C
15,"COc1cncc(N2CCCN(C)CC2)c1 (as salt: fumaric acid salt) [Compound 3E, 1-(5-Methoxy-3-pyridyl)-4-methyl-homopiperazine]",145 to 147 °C
16,"CCOc1cncc(N2CCCNCC2)c1 (as salt: fumaric acid salt) [Compound 3H, 1-(5-Ethoxy-3-pyridyl)-homopiperazine]",157.5 to 159 °C
17,"Clc1cncc(N2CCCNCC2)n1 (as salt: fumaric acid salt) [Compound 3K, 1-(6-Chloro-2-pyrazinyl)-homopiperazine]",180 to 181 °C
18,"Clc1cncc(N2CCNCC2)c1 (as salt: fumaric acid salt) [Compound 4B, 1-(5-Chloro-3-pyridyl)-piperazine]",195 to 196 °C
19,"CCOc1cncc(N2CCCN(C)CC2)c1 (as salt: fumaric acid salt) [Compound 4E, 1-(5-Ethoxy-3-pyridyl)-4-methyl-homopiperazine]",150 to 152 °C
20,"CN1CCN(c2cncc(Cl)c2)CC1 (as salt: fumaric acid salt) [Compound 5A, 1-(5-Chloro-3-pyridyl)-4-Methyl-piperazine]",162 to 163 °C
21,"CN1CCCN(c2cncc(-c3ccccc3)c2)CC1 (as salt: fumaric acid salt) [Compound 5E, 4-Methyl-1-(5-phenyl-3-pyridyl)-homopiperazine]",161 to 162 °C
22,"COc1cc(N2CCCNCC2)cnc1Cl (as salt: fumaric acid salt) [Compound 5F, 1-(6-Chloro-5-methoxy-3-pyridyl)-homopiperazine]",196 to 197 °C
23,"COCCOc1cncc(N2CCCNCC2)c1 (as salt: fumaric acid salt) [Compound 5H, 1-(5-Methoxyethoxy-3-pyridyl)-homopiperazine]",126 to 127 °C

# Source: patent US6897219B2, “Heteroaryl diazacycloalkanes, their preparation and use” (priority 1997, dated 2005)
